Data on one compound can be found in publication PMC3433420 (PLoS ONE, 2012).

Residues, ends and D or L forms follow the SMILES beside them.

For one assay, the target named is T1, SHC1-PTB domain (Homo sapiens, UniProt P29353).
T1 sequence (P29353 156-339 limits assumed): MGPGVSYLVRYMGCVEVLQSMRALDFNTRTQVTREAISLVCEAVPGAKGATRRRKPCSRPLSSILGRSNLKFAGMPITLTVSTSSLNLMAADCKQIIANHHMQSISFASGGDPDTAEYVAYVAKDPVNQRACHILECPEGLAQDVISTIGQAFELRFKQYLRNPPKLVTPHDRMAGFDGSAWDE
In words: FP saturation binding assay.

The next assay addresses T2, PTPN11-N SH2 domain (Homo sapiens, UniProt Q06124).
T2 sequence (Q06124 6-102 limits assumed): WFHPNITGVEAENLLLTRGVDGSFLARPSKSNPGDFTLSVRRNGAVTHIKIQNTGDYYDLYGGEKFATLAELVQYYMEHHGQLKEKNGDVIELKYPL
As to the kind of experiment: FP saturation binding assay.

For the next assay, the target named is T3, PIK3R3-C SH2 domain (Homo sapiens, UniProt Q92569).
T3 construct: thioredoxin; made in house; host or cells: E. coli BL21(DE3)pLysS
As to the kind of experiment: biochemical. The class given is binding. The note with it: protein PIK3R3-C; FP, high-confidence ErbB interactions; mean of replicate hits.

Turning to `CSCC[C@H](NC(=O)[C@H](Cc1ccc(OP(=O)(O)O)cc1)NC(=O)[C@H](CCC(=O)O)NC(=O)[C@H](Cc1ccc(O)cc1)NC(=O)CNC(=O)[C@@H](N)CC(C)C)C(=O)N[C@@H](CC(=O)O)C(=O)N[C@H](C(=O)NCC(=O)N[C@@H](CO)C(=O)N[C@@H](CC(=O)O)C(=O)N[C@@H](CC(C)C)C(=O)N[C@@H](CC(=O)O)C(=O)O)C(C)C` [ErbB3 1224 13-mer] (HELM PEPTIDE1{L.G.Y.E.[O=C([C@H](Cc1ccc(OP(=O)(O)O)cc1)N[*:1])[*:2]].M.D.V.G.S.D.L.D}$$$$V2.0), the figures for the Kd at SHC1-PTB domain, at PTPN11-N SH2 domain and on PIK3R3-C SH2 domain were 5.27 µM, 4.8 µM and 6.11 µM, respectively.
